Experimental data: ChEMBL document CHEMBL1201862, “PubChem BioAssay data set” (2004)
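Five concentrations, 48 hours, 96-well plates. Abbreviation: GI50, concentration required for 50% inhibition of growth.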 Calls of active or inactive are those of the source. Cut-off read from the data, not from the text of the source: active = GI50 up to about 1.1 µM and inactive = higher.

Tests used:
Assay in all cases: DTP human tumour cell line panel, 48 h
HOP-92 = test system: HOP-92
UO-31 = test system: UO-31
M14 = test system: M14
Malme-3M = test system: Malme-3M
OVCAR-3 = test system: OVCAR-3
SK-MEL-28 = test system: SK-MEL-28
K562 = test system: K562
UACC-257 = test system: UACC-257
SK-MEL-5 = test system: SK-MEL-5
COLO 205 = test system: COLO 205
HT-29 = test system: HT-29
SW-620 = test system: SW-620
MOLT-4 = test system: MOLT-4
SF-268 = test system: SF-268
HCT-116 = test system: HCT-116
RPMI-8226 = test system: RPMI-8226
SR = test system: SR

| Compound | GI50 (HOP-92) | GI50 (UO-31) | GI50 (M14) | GI50 (Malme-3M) | GI50 (OVCAR-3) | GI50 (SK-MEL-28) | GI50 (K562) | GI50 (UACC-257) | GI50 (SK-MEL-5) | GI50 (COLO 205) | GI50 (HT-29) | GI50 (SW-620) | GI50 (MOLT-4) | GI50 (SF-268) | GI50 (HCT-116) | GI50 (RPMI-8226) | GI50 (SR) |
| --- | --- | --- | --- | --- | --- | --- | --- | --- | --- | --- | --- | --- | --- | --- | --- | --- | --- |
| Clc1ccc(CCc2ccncn2)c(Cl)c1 | 54.6 µM (inactive) | 38.5 µM (inactive) | > 100 µM (inactive) | 58.9 µM (inactive) | 39.5 µM (inactive) | > 100 µM (inactive) | 63.8 µM (inactive) | 38.1 µM (inactive) | 19.5 µM (inactive) | 64.9 µM (inactive) | > 100 µM (inactive) | > 100 µM (inactive) | 29.3 µM (inactive) | 77.3 µM (inactive) | 52.5 µM (inactive) | 25.5 µM (inactive) | – |
| Oc1nc(-c2ccccc2)cc(-c2ccccc2O)n1 | 84.5 µM (inactive) | 41 µM (inactive) | > 100 µM (inactive) | > 100 µM (inactive) | 98.2 µM (inactive) | > 100 µM (inactive) | > 100 µM (inactive) | > 100 µM (inactive) | – | > 100 µM (inactive) | 56.6 µM (inactive) | > 100 µM (inactive) | 67 µM (inactive) | > 100 µM (inactive) | 83.4 µM (inactive) | 83.9 µM (inactive) | > 100 µM (inactive) |
| CC12CC3(C)CC(C)(C1)CC(N=[N+]=[N-])(C2)C3 | > 100 µM (inactive) | > 100 µM (inactive) | > 100 µM (inactive) | > 100 µM (inactive) | > 100 µM (inactive) | > 100 µM (inactive) | > 100 µM (inactive) | > 100 µM (inactive) | > 100 µM (inactive) | > 100 µM (inactive) | > 100 µM (inactive) | > 100 µM (inactive) | > 100 µM (inactive) | > 100 µM (inactive) | > 100 µM (inactive) | > 100 µM (inactive) | > 100 µM (inactive) |
| COc1ccc(CC/N=C2\CCC(C(=O)NCCc3ccc(OC)c(OC)c3)N2)cc1OC (configuration not stated) | > 100 µM (inactive) | > 100 µM (inactive) | > 100 µM (inactive) | > 100 µM (inactive) | > 100 µM (inactive) | > 100 µM (inactive) | > 100 µM (inactive) | > 100 µM (inactive) | > 100 µM (inactive) | > 100 µM (inactive) | > 100 µM (inactive) | > 100 µM (inactive) | > 100 µM (inactive) | > 100 µM (inactive) | > 100 µM (inactive) | > 100 µM (inactive) | – |
| C/C(=N/N(C=O)C[n+]1ccccc1)C(CN(CC(C)C)CC(C)C)C(=O)Nc1ccc(C)cc1C (configuration not stated) | 75.3 µM (inactive) | 25.8 µM (inactive) | > 100 µM (inactive) | > 100 µM (inactive) | > 100 µM (inactive) | > 100 µM (inactive) | > 100 µM (inactive) | > 100 µM (inactive) | 57.1 µM (inactive) | > 100 µM (inactive) | > 100 µM (inactive) | > 100 µM (inactive) | > 100 µM (inactive) | 43 µM (inactive) | > 100 µM (inactive) | > 100 µM (inactive) | 84.1 µM (inactive) |
| Cc1nc2ccccc2c(=O)n1/N=C(\N=N\c1cc(Cl)ccc1Cl)c1ccc(N(C)C)cc1 | – | 22.9 µM (inactive) | – | – | – | > 100 µM (inactive) | 57.1 µM (inactive) | – | 27.2 µM (inactive) | 78.3 µM (inactive) | 42 µM (inactive) | > 100 µM (inactive) | 25.2 µM (inactive) | 41.5 µM (inactive) | 32.3 µM (inactive) | 26.2 µM (inactive) | – |
| COc1ccc(/C(=C/n2ccnc2)C(=O)c2ccc(OC)c(OC)c2)cc1 | > 100 µM (inactive) | > 100 µM (inactive) | > 100 µM (inactive) | > 100 µM (inactive) | > 100 µM (inactive) | > 100 µM (inactive) | > 100 µM (inactive) | > 100 µM (inactive) | > 100 µM (inactive) | > 100 µM (inactive) | – | > 100 µM (inactive) | > 100 µM (inactive) | > 100 µM (inactive) | > 100 µM (inactive) | > 100 µM (inactive) | > 100 µM (inactive) |
| O=C1c2cccc([N+](=O)[O-])c2C(=O)c2nccnc21 | 7.1 µM (inactive) | 1.27 µM (inactive) | 1.57 µM (inactive) | 1.63 µM (inactive) | 1.87 µM (inactive) | 1.63 µM (inactive) | 1.91 µM (inactive) | 0.502 µM (active) | 0.25 µM (active) | – | 2.25 µM (inactive) | 1.73 µM (inactive) | 2.5 µM (inactive) | – | 1.63 µM (inactive) | 3.05 µM (inactive) | 2.05 µM (inactive) |
| Clc1ccc2c(Cl)ncnc2c1I | – | 67.8 µM (inactive) | 49.8 µM (inactive) | > 100 µM (inactive) | > 100 µM (inactive) | > 100 µM (inactive) | 30.5 µM (inactive) | > 100 µM (inactive) | > 100 µM (inactive) | > 100 µM (inactive) | > 100 µM (inactive) | 80 µM (inactive) | 24.8 µM (inactive) | > 100 µM (inactive) | 76.4 µM (inactive) | 33.7 µM (inactive) | 31.2 µM (inactive) |
| CC(=O)N(/N=C\c1ccc([N+](=O)[O-])cc1)c1ccccc1 | > 100 µM (inactive) | 35.9 µM (inactive) | > 100 µM (inactive) | > 100 µM (inactive) | > 100 µM (inactive) | > 100 µM (inactive) | > 100 µM (inactive) | > 100 µM (inactive) | > 100 µM (inactive) | > 100 µM (inactive) | > 100 µM (inactive) | > 100 µM (inactive) | – | > 100 µM (inactive) | > 100 µM (inactive) | > 100 µM (inactive) | – |
| Cc1c[nH]c2c1C13CC1CN(C(=O)c1cc4cc(NC(=O)c5cc6ccccc6o5)ccc4[nH]1)C3=CC2=O (configuration not stated) | – | – | < 0.001 µM (active) | < 0.001 µM (active) | – | < 0.001 µM (active) | < 0.001 µM (active) | < 0.001 µM (active) | < 0.001 µM (active) | < 0.001 µM (active) | < 0.001 µM (active) | < 0.001 µM (active) | < 0.001 µM (active) | < 0.001 µM (active) | < 0.001 µM (active) | – | < 0.001 µM (active) |
| O=C1C(c2ccccc2)=C(c2ccccc2)C(c2ccc(Sc3ccc(C4=C(c5ccccc5)C(=O)C(c5ccccc5)=C4c4ccccc4)cc3)cc2)=C1c1ccccc1 | > 100 µM (inactive) | > 100 µM (inactive) | > 100 µM (inactive) | > 100 µM (inactive) | > 100 µM (inactive) | – | > 100 µM (inactive) | > 100 µM (inactive) | > 100 µM (inactive) | > 100 µM (inactive) | > 100 µM (inactive) | > 100 µM (inactive) | > 100 µM (inactive) | > 100 µM (inactive) | > 100 µM (inactive) | > 100 µM (inactive) | > 100 µM (inactive) |
| O=C(O)c1ccc(C2C(=O)N[C@@H]3CCC[C@H]23)cc1 (some centres not stated) | – | > 100 µM (inactive) | > 100 µM (inactive) | > 100 µM (inactive) | > 100 µM (inactive) | > 100 µM (inactive) | > 100 µM (inactive) | > 100 µM (inactive) | > 100 µM (inactive) | > 100 µM (inactive) | > 100 µM (inactive) | > 100 µM (inactive) | > 100 µM (inactive) | > 100 µM (inactive) | > 100 µM (inactive) | > 100 µM (inactive) | – |
| CCOC(=O)C1=C(Nc2ccc(Cl)c(Cl)c2)OC/C1=N\NS(=O)(=O)c1ccc(C)cc1 | – | 25.1 µM (inactive) | 73.3 µM (inactive) | 67.8 µM (inactive) | 49.5 µM (inactive) | 64.7 µM (inactive) | 21.3 µM (inactive) | 18.2 µM (inactive) | 42.9 µM (inactive) | > 100 µM (inactive) | – | > 100 µM (inactive) | 26.3 µM (inactive) | 45.8 µM (inactive) | 22.8 µM (inactive) | 21.6 µM (inactive) | – |
| Oc1ccc2occ3c2c1CCC3 | 29.2 µM (inactive) | – | > 100 µM (inactive) | – | 64.1 µM (inactive) | > 100 µM (inactive) | 65.8 µM (inactive) | > 100 µM (inactive) | > 100 µM (inactive) | > 100 µM (inactive) | > 100 µM (inactive) | > 100 µM (inactive) | > 100 µM (inactive) | – | > 100 µM (inactive) | 98.4 µM (inactive) | – |
| Cc1ccc(C)c(NC(=O)C(=O)Nn2c(S)nc3ccccc3c2=O)c1 | > 100 µM (inactive) | > 100 µM (inactive) | > 100 µM (inactive) | > 100 µM (inactive) | – | > 100 µM (inactive) | > 100 µM (inactive) | > 100 µM (inactive) | > 100 µM (inactive) | > 100 µM (inactive) | > 100 µM (inactive) | > 100 µM (inactive) | > 100 µM (inactive) | > 100 µM (inactive) | > 100 µM (inactive) | > 100 µM (inactive) | > 100 µM (inactive) |
| C(CCC[Te][Te]CCCCCCOC1CCCCO1)CCOC1CCCCO1 (configuration not stated) | 12.2 µM (inactive) | 19.8 µM (inactive) | 21.1 µM (inactive) | 6.44 µM (inactive) | – | 14.1 µM (inactive) | 5.86 µM (inactive) | 6.81 µM (inactive) | – | 15.7 µM (inactive) | 12 µM (inactive) | 18.2 µM (inactive) | 9.82 µM (inactive) | 16.6 µM (inactive) | 19.8 µM (inactive) | – | 7.64 µM (inactive) |
| COC(=O)C(C(=O)C(=O)Nc1ccccc1C(C)=O)c1nc2ccc(Cl)cc2nc1O (configuration not stated) | > 100 µM (inactive) | 77.8 µM (inactive) | > 100 µM (inactive) | > 100 µM (inactive) | > 100 µM (inactive) | > 100 µM (inactive) | > 100 µM (inactive) | > 100 µM (inactive) | > 100 µM (inactive) | > 100 µM (inactive) | > 100 µM (inactive) | > 100 µM (inactive) | > 100 µM (inactive) | > 100 µM (inactive) | > 100 µM (inactive) | > 100 µM (inactive) | – |
